≈ marks a conversion by molar mass, not a printed value. Calls of active or inactive are those of the source. No cut-off for these calls is given here.
Assays:
[1] = target: Serine/threonine-protein kinase PLK2 (Homo sapiens, UniProt Q9NYY3); assay: Inhibition of PLK2 assessed as [33P]gamma-ATP incorporation into substrate after 60 mins by gamma counting
[2] = system: A2780; assay: Antiproliferative activity against human A2780 cells
[3] = Solubility of compound at pH 7; assay type: physicochemical; settings: buffer
[4] = system: CAL-51; assay: Cell cycle arrest in human CAL51 cells at 0.1 to 1 uM after 24 hrs by flow cytometry; assay type: functional, cell-based
[5] = target: Serine/threonine-protein kinase PLK1 (Homo sapiens, UniProt P53350); assay: Inhibition of PLK1 assessed as [33P]gamma-ATP incorporation into substrate after 60 mins by gamma counting
[6] = target: Serine/threonine-protein kinase PLK3 (Homo sapiens, UniProt Q9H4B4); assay: Inhibition of PLK3 assessed as [33P]gamma-ATP incorporation into substrate after 60 mins by gamma counting
[7] = Solubility of compound in 10% Tween 80; assay type: physicochemical
[8] = system: Caco-2; assay: Apparent permeability of the compound across human Caco2 cells; assay type: ADME, cell-based
[9] = Apparent permeability of the compound by PAMPA assay; assay type: ADME
[10] = Intrinsic clearance in rat hepatocytes at 1 uM; assay type: ADME, cell-based, Liver, Hepatocyte
[11] = Intrinsic clearance in human liver microsomes at 1 uM; assay type: ADME, Microsome
[12] = AUC (infinity) in overnight fasted CD1 nu/nu mouse at 10 mg/kg, iv; assay type: ADME, organism-based; parameters: time infinity, dose 10 mg/kg, route intravenous; settings: plasma
[13] = Clearance in overnight fasted CD1 nu/nu mouse at 10 mg/kg, iv; assay type: ADME, organism-based; parameters: dose 10 mg/kg, route intravenous; settings: in vivo
[14] = Volume of distribution at steady state in overnight fasted CD1 nu/nu mouse at 10 mg/kg, iv; assay type: ADME, organism-based; parameters: dose 10 mg/kg, route intravenous; settings: in vivo, read-out: Vdss
[15] = Half life in overnight fasted CD1 nu/nu mouse at 10 mg/kg, iv; assay type: ADME, organism-based; parameters: dose 10 mg/kg, route intravenous; settings: in vivo
[16] = Cmax in overnight fasted CD1 nu/nu mouse at 10 mg/kg, po; assay type: ADME, organism-based; parameters: dose 10 mg/kg, route oral; settings: in vivo
[17] = AUC (infinity) in overnight fasted CD1 nu/nu mouse at 10 mg/kg, po; assay type: ADME, organism-based; parameters: time infinity, dose 10 mg/kg, route oral; settings: plasma
[18] = Half life in overnight fasted CD1 nu/nu mouse at 10 mg/kg, po; assay type: ADME, organism-based; parameters: dose 10 mg/kg, route oral; settings: in vivo
[19] = Oral bioavailability in overnight fasted CD1 nu/nu mouse at 10 mg/kg; assay type: ADME, organism-based; settings: in vivo
[20] = system: Mus musculus; assay: Toxicity in CD1 nu/nu mouse xenografted with human HCT116 cells assessed as reversible body weight loss at 30 mg/kg, iv BID administered on days 1 to 2 in weekly scheduling for 3 cycles measured on day 30; assay type: organism-based, HCT-116; parameters: dose 30 mg/kg, route intravenous; settings: in vivo
[21] = system: Mus musculus; assay: Toxicity in CD1 nu/nu mouse xenografted with human HCT116 cells assessed as reversible body weight loss at 90 mg/kg, po once daily administered on days 1 to 2 in weekly scheduling for 4 cycles measured on day 15; settings: in vivo
[22] = system: HCT-116; assay: Antitumor activity against human HCT116 cells xenografted in CD1 nu/nu mouse assessed as tumor growth inhibition at 90 mg/kg, po once daily administered on days 1 to 2 daily in weekly scheduling for 4 cycles measured on day 18; settings: HCT-116, po, 432 h, read-out: TGI

Sequence of Serine/threonine-protein kinase PLK2 (Q9NYY3 whole entry): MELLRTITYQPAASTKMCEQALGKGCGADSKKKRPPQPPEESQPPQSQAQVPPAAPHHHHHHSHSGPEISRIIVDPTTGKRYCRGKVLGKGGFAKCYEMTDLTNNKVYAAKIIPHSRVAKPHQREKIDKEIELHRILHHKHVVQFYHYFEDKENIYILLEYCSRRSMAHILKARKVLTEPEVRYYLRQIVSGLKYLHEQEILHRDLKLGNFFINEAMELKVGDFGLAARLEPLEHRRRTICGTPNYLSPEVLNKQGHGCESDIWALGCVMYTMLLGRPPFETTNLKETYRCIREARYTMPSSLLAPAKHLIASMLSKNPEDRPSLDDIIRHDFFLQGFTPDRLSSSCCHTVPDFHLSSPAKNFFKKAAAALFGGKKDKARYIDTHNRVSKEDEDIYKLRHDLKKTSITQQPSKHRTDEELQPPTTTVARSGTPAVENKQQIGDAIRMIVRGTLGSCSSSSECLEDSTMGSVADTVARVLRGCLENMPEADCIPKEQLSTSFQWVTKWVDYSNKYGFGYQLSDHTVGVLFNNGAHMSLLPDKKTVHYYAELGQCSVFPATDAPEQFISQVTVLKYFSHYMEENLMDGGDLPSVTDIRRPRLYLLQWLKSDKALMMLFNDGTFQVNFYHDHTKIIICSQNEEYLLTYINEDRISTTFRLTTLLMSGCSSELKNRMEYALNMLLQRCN
Sequence of Serine/threonine-protein kinase PLK1 (P53350 whole entry): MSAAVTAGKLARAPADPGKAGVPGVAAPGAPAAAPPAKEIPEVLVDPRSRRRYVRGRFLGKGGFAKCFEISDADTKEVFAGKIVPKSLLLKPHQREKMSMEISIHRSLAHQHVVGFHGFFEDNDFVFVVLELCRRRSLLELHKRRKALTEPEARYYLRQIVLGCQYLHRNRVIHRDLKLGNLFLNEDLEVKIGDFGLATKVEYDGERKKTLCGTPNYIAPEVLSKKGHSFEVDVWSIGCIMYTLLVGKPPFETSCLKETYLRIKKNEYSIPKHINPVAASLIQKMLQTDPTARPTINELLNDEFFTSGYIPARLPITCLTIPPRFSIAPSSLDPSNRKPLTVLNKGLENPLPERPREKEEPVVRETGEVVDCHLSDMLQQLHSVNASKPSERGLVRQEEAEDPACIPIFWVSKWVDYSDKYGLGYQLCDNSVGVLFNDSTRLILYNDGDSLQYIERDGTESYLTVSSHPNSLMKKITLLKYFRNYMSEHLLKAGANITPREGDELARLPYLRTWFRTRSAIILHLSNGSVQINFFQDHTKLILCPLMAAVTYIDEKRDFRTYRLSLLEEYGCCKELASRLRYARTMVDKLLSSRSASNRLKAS
Sequence of Serine/threonine-protein kinase PLK3 (Q9H4B4 whole entry): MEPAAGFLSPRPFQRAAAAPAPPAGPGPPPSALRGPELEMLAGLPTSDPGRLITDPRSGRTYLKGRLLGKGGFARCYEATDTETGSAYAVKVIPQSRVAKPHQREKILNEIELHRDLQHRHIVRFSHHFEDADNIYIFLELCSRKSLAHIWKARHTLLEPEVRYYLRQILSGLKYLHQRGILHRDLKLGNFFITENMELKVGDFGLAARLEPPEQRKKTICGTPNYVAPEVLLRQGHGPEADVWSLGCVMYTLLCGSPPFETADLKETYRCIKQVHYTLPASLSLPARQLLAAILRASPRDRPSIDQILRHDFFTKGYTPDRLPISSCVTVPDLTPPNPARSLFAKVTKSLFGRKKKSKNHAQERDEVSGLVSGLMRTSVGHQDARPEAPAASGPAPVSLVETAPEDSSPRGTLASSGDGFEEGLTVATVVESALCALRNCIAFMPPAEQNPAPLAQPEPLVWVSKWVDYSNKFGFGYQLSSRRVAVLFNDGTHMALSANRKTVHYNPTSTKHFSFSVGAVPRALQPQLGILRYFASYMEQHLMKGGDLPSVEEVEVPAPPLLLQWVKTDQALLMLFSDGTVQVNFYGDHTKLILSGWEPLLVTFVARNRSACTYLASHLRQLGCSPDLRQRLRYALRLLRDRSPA

Row | SMILES | IC50 [1] [µM] | IC50 [2] [µM] | solubility [3] [µM] | IC50 [5] [µM] | IC50 [6] [µM] | also measured
1 | CN1CCN(c2ccc(OC(F)(F)F)c(Nc3ncc4c(n3)-c3c(c(C(N)=O)nn3CCOC3CCCCO3)CC4)c2)CC1 (stereo not given) | > 10 | – | 35 (≈ 21.6 µg/mL) | – | – | –
2 | CN1CCN(c2ccc(OC(F)(F)F)c(Nc3ncc4c(n3)-c3c(c(C(N)=O)nn3CCO)CC4)c2)CC1 | – | – | – | – | – | Activity [4]: Active
3 | CN1CCC(C(=O)Nc2ccc(OC(F)(F)F)c(Nc3ncc4c(n3)-c3c(c(C(N)=O)nn3C)CC4)c2)CC1 | 1.5 | 1.35 | 33 (≈ 18 µg/mL) | – | – | –
4 | CN1CCN(c2ccc(OC(F)(F)F)c(Nc3ncc4c(n3)-c3c(c(C(N)=O)nn3CCO)CC4)c2)CC1.Cl | – | – | – | – | – | AUC(0-inf) [12]: 8.57 µM·h; clearance [13]: 39.3 mL/min/kg; Vd [14]: 1.71 L/kg; half-life [15]: 0.89 h; Cmax [16]: 640 nM; AUC(0-inf) [17]: 2.04 µM·h; half-life [18]: 1.6 h; bioavailability [19]: 24%
5 | CN1CCN(CCCNc2ccc(OC(F)(F)F)c(Nc3ncc4c(n3)-c3c(c(C(N)=O)nn3C)CC4)c2)CC1 | 1.36 | 1.64 | 186 (≈ 104 µg/mL) | – | – | –
6 | CN1CCN(c2ccc(OC(F)(F)F)c(Nc3ncc4c(n3)-c3c(c(C(N)=O)nn3C)CC4)c2)CC1 | – | – | – | – | – | Papp [8]: permeable; CLint scaled at 1 µM [10]: 600 mL/min/kg; Activity [20]: 14%; Activity [21]: 14%; inhibition in vivo at 90 mg/kg [22]: 59%
7 | CN1CCN(c2ccc(OC(F)(F)F)c(Nc3ncc4c(n3)-c3c(c(C(N)=O)nn3CCCN)CC4)c2)CC1 | > 10 | 0.846 | 186 (≈ 101 µg/mL) | 0.052 | > 10 | Papp [9]: 4 ×10⁻⁶ cm/s
8 | CN1CC=C(c2ccc(OC(F)(F)F)c(Nc3ncc4c(n3)-c3c(c(C(N)=O)nn3C)CC4)c2)CC1 | 2.25 | 0.034 | 148 (≈ 73.9 µg/mL) | – | – | solubility [7]: 3700 µg/mL (≈ 7.41 mM); Papp [8]: permeable; Papp [9]: 46.4 ×10⁻⁶ cm/s; CLint scaled at 1 µM [10]: 638 mL/min/kg; CLint scaled at 1 µM [11]: 24.5 mL/min/kg

Continued, in another order:

Row | IC50 [1] [µM] | IC50 [2] [µM] | solubility [3] [µM] | IC50 [5] [µM] | IC50 [6] [µM] | SMILES | also measured
9 | 1.49 | 1.61 | 166 (≈ 88.4 µg/mL) | – | – | CN1CCN(c2ccc(OC(F)(F)F)c(Nc3ncc4c(n3)-c3c(c(C(N)=O)nn3C)CC4)c2)[C@H](CO)C1 | –
10 | > 10 | 0.598 | 121 (≈ 64.4 µg/mL) | – | – | CN1CCN(c2ccc(OC(F)(F)F)c(Nc3ncc4c(n3)-c3c(c(C(N)=O)nn3C)CC4)c2)[C@@H](CO)C1 | –
11 | > 10 | – | 203 (≈ 102 µg/mL) | 0.006 | > 10 | CN1CCC(c2ccc(OC(F)(F)F)c(Nc3ncc4c(n3)-c3c(c(C(N)=O)nn3C)CC4)c2)CC1 | solubility [7]: 3800 µg/mL (≈ 7.58 mM); Papp [8]: permeable; Papp [9]: 36.8 ×10⁻⁶ cm/s; CLint scaled at 1 µM [10]: 603 mL/min/kg; CLint scaled at 1 µM [11]: 15.9 mL/min/kg
12 | > 10 | 1.31 | 202 (≈ 107 µg/mL) | 0.033 | > 10 | CN1CCN(c2ccc(OC(F)(F)F)c(Nc3ncc4c(n3)-c3c(c(C(N)=O)nn3CCN)CC4)c2)CC1 | Papp [9]: 5 ×10⁻⁶ cm/s
13 | > 10 | 2.5 | 200 (≈ 115 µg/mL) | 0.279 | > 10 | CN(C)CCCn1nc(C(N)=O)c2c1-c1nc(Nc3cc(N4CCN(C)CC4)ccc3OC(F)(F)F)ncc1CC2 | –
14 | > 10 | 1.14 | 162 (≈ 86.3 µg/mL) | 0.06 | > 10 | CCN(CC)CCN(C)c1ccc(OC(F)(F)F)c(Nc2ncc3c(n2)-c2c(c(C(N)=O)nn2C)CC3)c1 | –
15 | 1.45 | 0.348 | 79 (≈ 40.8 µg/mL) | – | – | Cn1nc(C(N)=O)c2c1-c1nc(Nc3cc(NC(=O)[C@@H]4CCCN4)ccc3OC(F)(F)F)ncc1CC2 | –
